We go through 31 compounds from patent US12435060B2, “Acylamino bridged heterocyclic compound, and composition and application thereof” (BEIJING SCITECH-MQ PHARMACEUTICALS LIMITED, priority 2019, dated 2025).

The assay relates to HT29 cells. The assay can be described thus: Inhibition of cell necrosis (CCK8 method), induced programmed necrosis of HT29 cells. The class given is cell-based. Particulars: Homo sapiens, HT-29; rescue from necrosis induced by TNF-α 20 ng/mL, AT-406 1 μM, Z-VAD-FMK 20 μM; 16-20 hours; CCK-8, OD 450 nm. In a few lines:
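HT29 cells in McCOY's 5A with 10% FBS were pre-treated for 30 min with compound (9 fourfold steps, 25000 to 0.38 nM final, 0.25% DMSO). Necrosis was then induced with TNF-α 20 ng/mL, AT-406 1 μM and Z-VAD-FMK 20 μM for 16-20 h. Viability was read by CCK-8 OD450, normalized between uninduced and induced wells, and IC50 was curve-fitted.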
In general terms: Tetrazolium assays rely on reduction of a dye to a coloured formazan, in cell work by metabolically active cells.
By IC50 is commonly meant the point on the concentration scale where inhibition reaches its midpoint. A higher IC50 goes with lower potency. As for `Cc1ccc(OCCC2CCOCC2)cc1-c1ccnc(NC(=O)c2nnc(CC3CCCC3)[nH]2)c1` [Example 88, 5-(cyclopentylmethyl)-N-(4-(2-methyl-5-(2-(tetrahydro-2H-pyran-4-yl)ethoxy)phenyl)pyridin-2-yl)-4H-1,2,4-triazole-3-carboxamide], the IC50 is not above 100 nM.
For the compound `Cc1ccc(OCCCCC#N)cc1-c1ccnc(NC(=O)c2nnc(Cc3ccccc3)[nH]2)c1` [Example 91, 5-benzyl-N-(4-(5-(4-cyanobutoxy)-2-methylphenyl)pyridin-2-yl)-4H-1,2,4-triazole-3-carboxamide], the IC50 was not above 100 nM.
Under `Cc1ccc(OCCCCC(C)(C)O)cc1-c1ccnc(NC(=O)c2nnc(CC3CCCC3)[nH]2)c1` [Example 223, 5-(cyclopentylmethyl)-N-(4-(5-((5-hydroxyl-5-methylhexyl)oxy)-2-methylphenyl)pyridin-2-yl)-4H-1,2,4-triazole-3-carboxamide] stands not above 100 nM; under `COCCOc1ccc(C(F)(F)F)c(-c2ccnc(NC(=O)c3nnc(Cc4ccccc4)[nH]3)c2)c1` [Example 279, 5-benzyl-N-(4-(5-(2-methoxyethoxy)-2-(trifluoromethyl)phenyl)pyridin-2-yl)-4H-1,2,4-triazole-3-carboxamide], not above 100 nM; under `Cc1ccc(OCCCC(C)(C)O)cc1-c1ccnc(NC(=O)c2nnc(CC3CC4CCC3C4)[nH]2)c1` (stereo not shown) [Example 179, 5-(bicyclo[2.2.1]heptan-2-ylmethyl)-N-(4-(5-((4-hydroxy-4-methylpentyl)oxy)-2-methylphenyl)pyridin-2-yl)-4H-1,2,4-triazole-3-carboxamide], not above 100 nM.
On to `COCCOc1cccc(-c2ccnc(NC(=O)c3nnc(Cc4ccccc4)[nH]3)c2)c1C` [Example 96, 5-benzyl-N-(4-(3-(2-methoxyethoxy)-2-methylphenyl)pyridin-2-yl)-4H-1,2,4-triazole-3-carboxamide], for which the IC50 fell in the range of 100 to 1000 nM.
Then `CC(C)(O)COc1ccc(Cl)c(-c2ccnc(NC(=O)c3nnc(CC4CCCC4)[nH]3)c2)c1` [Example 365, N-(4-(2-chloro-5-(2-hydroxyl-2-methylpropoxy)phenyl)pyridin-2-yl)-5-(cyclopentylmethyl)-4H-1,2,4-triazole-3-carboxamide], with not above 100 nM; and `Cc1ccc(OCCCC(C)(C)O)cc1-c1cc(NC(=O)c2nnc(Cc3cccc(F)c3)[nH]2)ncn1` [Example 434, 5-(3-fluorobenzyl)-N-(6-(5-((4-hydroxy-4-methylpentyl)oxy)-2-methylphenyl)pyrimidin-4-yl)-4H-1,2,4-triazole-3-carboxamide], with not above 100 nM.
`COCCOc1cnc(C)c(-c2ccnc(NC(=O)c3nnc(Cc4ccccc4)[nH]3)c2)c1` [Example 129, 5-benzyl-N-(5-(2-methoxyethoxy)-2-methyl-[3,4′-bipyridin]-2′-yl)-4H-1,2,4-triazole-3-carboxamide] returned an IC50 of 100 to 1000 nM.
Turning to `Cc1ccc(OCCN2CCCCC2)cc1-c1ccnc(NC(=O)c2nnc(Cc3ccccc3F)[nH]2)c1` [Example 229, 5-(2-fluorobenzyl)-N-(4-(2-methyl-5-(2-(piperidin-1-yl)ethoxy)phenyl)pyridin-2-yl)-4H-1,2,4-triazole-3-carboxamide], the IC50 is 100 to 1000 nM.
Then `CCOCCOc1ccc(C(F)(F)F)c(-c2ccnc(NC(=O)c3nnc(CC4CCCC4)[nH]3)c2)c1` [Example 285, 5-(cyclopentylmethyl)-N-(4-(5-(2-ethoxyethoxy)-2-(trifluoromethyl)phenyl)pyridin-2-yl)-4H-1,2,4-triazole-3-carboxamide], with not above 100 nM.
Under `Cc1ccc(OCCCC(C)(C)O)cc1-c1cc(NC(=O)c2nnc(Cc3ccccc3F)[nH]2)ncc1F` [Example 492, N-(5-fluoro-4-(5-((4-hydroxy-4-methylpentyl)oxy)-2-methylphenyl)pyridin-2-yl)-5-(2-fluorobenzyl)-4H-1,2,4-triazole-3-carboxamide] stands not above 100 nM.
`O=C(Nc1cc(-c2cc(OCCCCCO)ccc2C(F)(F)F)ccn1)c1nnc(Cc2ccccc2)[nH]1` [Example 275, 5-benzyl-N-(4-(5-((5-hydroxypentyl)oxy)-2-(trifluoromethyl)phenyl)pyridin-2-yl)-4H-1,2,4-triazole-3-carboxamide] had an IC50 not above 100 nM.
Under `CCOCCOc1ccc(C(F)(F)F)c(-c2ccnc(NC(=O)c3nnc(Cc4ccccc4)[nH]3)c2)c1` [Example 283, 5-benzyl-N-(4-(5-(2-ethoxyethoxy)-2-(trifluoromethyl)phenyl)pyridin-2-yl)-4H-1,2,4-triazole-3-carboxamide] stands not above 100 nM; under `Cc1ccc(OCCN2CCCCC2)cc1-c1ccnc(NC(=O)c2nnc(Cc3ccccc3)[nH]2)c1` [Example 228, 5-benzyl-N-(4-(2-methyl-5-(2-(piperidin-1-yl)ethoxy)phenyl)pyridin-2-yl)-4H-1,2,4-triazole-3-carboxamide], 100 to 1000 nM; under `Cc1ccc(OCCCC(C)(C)O)cc1-c1cc(NC(=O)c2nnc(CC3CCCCC3)[nH]2)ncc1Cl` [Example 239, N-(5-chloro-4-(5-((4-hydroxy-4-methylpentyl)oxy)-2-methylphenyl)pyridin-2-yl)-5-(cyclohexylmethyl)-4H-1,2,4-triazole-3-carboxamide], not above 100 nM.
Under `COCCCC(O)c1ccc(C)c(-c2ccnc(NC(=O)c3nnc(Cc4ccccc4)[nH]3)c2)c1` (stereo not shown) [Example 484, 5-benzyl-N-(4-(5-(1-hydroxyl-4-methoxybutyl)-2-methylphenyl)pyridin-2-yl)-4H-1,2,4-triazole-3-carboxamide] stands not above 100 nM; under `Cc1ccc(OCCCC#N)cc1-c1ccnc(NC(=O)c2nnc(Cc3ccccc3)[nH]2)c1` [Example 148, 5-benzyl-N-(4-(5-(3-cyanopropoxy)-2-methylphenyl)pyridin-2-yl)-4H-1,2,4-triazole-3-carboxamide], not above 100 nM.
`Cc1cc(C(C)(C)O)ccc1-c1ccnc(NC(=O)c2nnc(Cc3ccccc3)[nH]2)c1` [Example 161, 5-benzyl-N-(4-(4-(2-hydroxypropan-2-yl)-2-methylphenyl)pyridin-2-yl)-4H-1,2,4-triazole-3-carboxamide]: the IC50 fell in the range of 100 to 1000 nM.
`O=C(Nc1cc(-c2cc(OCCCCO)ccc2C(F)(F)F)ccn1)c1nnc(CC2CCCC2)[nH]1` [Example 274, 5-(cyclopentylmethyl)-N-(4-(5-(4-hydroxybutoxy)-2-(trifluoromethyl)phenyl)pyridin-2-yl)-4H-1,2,4-triazole-3-carboxamide] came in with an IC50 not above 100 nM.
Then `Cc1ccccc1-c1cncc(NC(=O)c2nnc(Cc3ccccc3)[nH]2)c1` [Example 29, 5-benzyl-N-(5-(o-methylphenyl)pyridin-3-yl)-4H-1,2,4-triazole-3-carboxamide], with more than 10000 nM; and `Cc1cc(C#N)ccc1-c1ccnc(NC(=O)c2nnc(Cc3ccccc3)[nH]2)c1` [Example 12, 5-benzyl-N-(4-(4-cyano-2-methylphenyl)pyridin-2-yl)-4H-1,2,4-triazole-3-carboxamide], with 100 to 1000 nM.
`O=C(Nc1cc(-c2cccc3c2OCCO3)ccn1)c1nnc(Cc2ccccc2)[nH]1` [Example 42, 5-benzyl-N-(4-(2,3-dihydrobenzo[b][1,4]dioxin-5-yl)pyridin-2-yl)-4H-1,2,4-triazole-3-carboxamide]: the IC50 lay within 1000 to 10000 nM.
Turning to `O=C(Nc1cc(-c2cc(OCCCCCO)ccc2C(F)(F)F)ccn1)c1nnc(Cc2ccccc2F)[nH]1` [Example 276, 5-(2-fluorobenzyl)-N-(4-(5-((5-hydroxypentyl)oxy)-2-(trifluoromethyl)phenyl)pyridin-2-yl)-4H-1,2,4-triazole-3-carboxamide], the IC50 is not above 100 nM.
Then `Cc1ccc(OCCC2OCCO2)cc1-c1ccnc(NC(=O)c2nnc(Cc3ccccc3)[nH]2)c1` [Example 137, N-(4-(5-(2-(1,3-dioxolan-2-yl)ethoxy)-2-methylphenyl)pyridin-2-yl)-5-benzyl-4H-1,2,4-triazole-3-carboxamide], with not above 100 nM; and `COc1ccc(C)c(-c2ccnc(NC(=O)c3nnc(Cc4ccccc4)[nH]3)c2)c1` [Example 101, 5-benzyl-N-(4-(5-methoxy-2-methylphenyl)pyridin-2-yl)-4H-1,2,4-triazole-3-carboxamide], with 100 to 1000 nM; and `Cc1ccc(OCCC2CC2)cc1-c1ccnc(NC(=O)c2nnc(Cc3ccccc3)[nH]2)c1` [Example 69, 5-benzyl-N-(4-(5-(2-cyclopropylethoxy)-2-methylphenyl)pyridin-2-yl)-4H-1,2,4-triazole-3-carboxamide], with not above 100 nM.
Compound `CC(C)(O)COc1ccc(Cl)c(-c2ccnc(NC(=O)c3nnc(Cc4ccccc4)[nH]3)c2)c1` [Example 363, 5-benzyl-N-(4-(2-chloro-5-(2-hydroxyl-2-methylpropoxy)phenyl)pyridin-2-yl)-4H-1,2,4-triazole-3-carboxamide] gave an IC50 not above 100 nM.
Regarding `COCCCCOc1ccc(C)c(-c2ccnc(NC(=O)c3nnc(Cc4ccccc4)[nH]3)c2)c1` [Example 152, 5-benzyl-N-(4-(5-(4-methoxybutoxy)-2-methylphenyl)pyridin-2-yl)-4H-1,2,4-triazole-3-carboxamide], the IC50 was not above 100 nM.
`CCOCCCOc1ccc(C)c(-c2ccnc(NC(=O)c3nnc(Cc4ccccc4)[nH]3)c2)c1` [Example 147, 5-benzyl-N-(4-(5-(3-ethoxypropoxy)-2-methylphenyl)pyridin-2-yl)-4H-1,2,4-triazole-3-carboxamide] registered an IC50 not above 100 nM.
For `CC(C)(O)CCCCOc1ccc(Cl)c(-c2ccnc(NC(=O)c3nnc(CC4CCCCC4)[nH]3)c2)c1` [Example 370, N-(4-(2-chloro-5-((5-hydroxyl-5-methylhexyl)oxy)phenyl)pyridin-2-yl)-5-(cyclohexylmethyl)-4H-1,2,4-triazole-3-carboxamide], the IC50 was not above 100 nM.
